Results: US20090176811A1, “Substituted 5,6,7,8-Tetrahydro-pyrido[4,3-d]pyrimidine-2-yl Compounds and 5,6,7,8-Tetrahydro-quinazoline-2-yl Compounds” (GRUENENTHAL GmbH, priority 2004, published 2009)

What follows are molecules tested on batrachotoxin (BTX) binding site of the sodium channel (assay: Affinity for the batrachotoxin (BTX) binding site of the sodium channel ([3H]-Batrachotoxinin A20 benzoate, rat cerebrocortex synaptosomes)). Conditions: [3H]-Batrachotoxinin A20 benzoate 10 nM, test concentration not given.

Compared with CC(C)C(NC(=O)OCC1c2ccccc2-c2ccccc21)C(=O)NC1CCc2nc(NC(=O)c3cccs3)ncc2C1 (stereo not drawn) [Example 139, (2-methyl-1-{2-[(thiophene-2-carbonyl)-amino]-5,6,7,8-tetrahydro-quinazolin-6-ylcarbamoyl}-propyl)-carbamic acid 9H-fluoren-9-ylmethyl ester], Cc1cc(C(=O)NC2CCc3nc(NC(=O)c4cccs4)ncc3C2)ccc1Br (stereo not drawn) [Example 115, thiophene-2-carboxylic acid [6-(4-bromo-3-methyl-benzoylamino)-5,6,7,8-tetrahydro-quinazolin-2-yl]-amide] is higher in BTX inhibition: 62 for the first, 82 for the second.

Going from O=C(Nc1ncc2c(n1)CCN(S(=O)(=O)c1ccc(Cl)cc1)C2)c1ccc(Cl)c(Cl)c1 [Example 71, 3,4-dichloro-N-[6-(4-chloro-benzenesulfonyl)-5,6,7,8-tetrahydro-pyrido[4,3-d]pyrimidin-2-yl]-benzamide] to O=C(Nc1ncc2c(n1)CCN(S(=O)(=O)c1cccc(Br)c1)C2)c1cccc(Cl)c1 [Example 125, N-[6-(3-bromo-benzenesulfonyl)-5,6,7,8-tetrahydro-pyrido[4,3-d]pyrimidin-2-yl]-3-chloro-benzamide], the BTX inhibition falls from 69 to 66.

Going from COc1ccccc1C(=O)Nc1ncc2c(n1)CCN(S(=O)(=O)c1ccc(Cl)s1)C2 [Example 86, N-[6-(5-chloro-thiophene-2-sulfonyl)-5,6,7,8-tetrahydro-pyrido[4,3-d]pyrimidin-2-yl]-2-methoxy-benzamide] to O=C(Nc1ncc2c(n1)CCN(S(=O)(=O)c1ccc(Cl)s1)C2)c1cccc2ccccc12 [Example 117, naphthalene-1-carboxylic acid [6-(5-chloro-thiophene-2-sulfonyl)-5,6,7,8-tetrahydro-pyrido[4,3-d]pyrimidin-2-yl]-amide], the BTX inhibition falls from 62 to 37.

First: CCc1ccc(C(=O)Nc2ncc3c(n2)CCN(S(=O)(=O)c2ccc4c(c2)CN(C(=O)C(F)(F)F)CC4)C3)cc1 [Example 157, 4-ethyl-N-{6-[2-(2,2,2-trifluoro-acetyl)-1,2,3,4-tetrahydro-isoquinoline-7-sulfonyl]-5,6,7,8-tetrahydro-pyrido[4,3-d]pyrimidin-2-yl}-benzamide]
Second: CCc1ccc(C(=O)Nc2ncc3c(n2)CCN(S(=O)(=O)c2ccccc2Cl)C3)cc1 [Example 114, N-[6-(2-chloro-benzenesulfonyl)-5,6,7,8-tetrahydro-pyrido[4,3-d]pyrimidin-2-yl]-4-ethyl-benzamide]
The BTX inhibition of the first is lower: 63 for the first, 82 for the second.

First: O=C(Nc1ncc2c(n1)CCN(C(=O)Cc1c(Cl)cccc1Cl)C2)c1cccc(Cl)c1 [Example 187, 3-chloro-N-{6-[2-(2,6-dichloro-phenyl)-acetyl]-5,6,7,8-tetrahydro-pyrido[4,3-d]pyrimidin-2-yl}-benzamide]
Second: Cc1ccc(C(=O)Nc2ncc3c(n2)CCN(C(=O)COc2cccc(Cl)c2)C3)cc1 [Example 189, N-{6-[2-(3-chloro-phenoxy)-acetyl]-5,6,7,8-tetrahydro-pyrido[4,3-d]pyrimidin-2-yl}-4-methyl-benzamide]
The BTX inhibition of the first is lower: 43 for the first, 55 for the second.

Going from Cc1ccc(C(=O)N2CCc3nc(NC(=O)c4ccc(C(C)(C)C)cc4)ncc3C2)cc1[N+](=O)[O-] [Example 92, 4-tert-butyl-N-[6-(4-methyl-3-nitro-benzoyl)-5,6,7,8-tetrahydro-pyrido[4,3-d]pyrimidin-2-yl]-benzamide] to O=C(Nc1ncc2c(n1)CCN(C(=O)c1ccc(F)cc1F)C2)c1ccc(Cl)cc1 [Example 152, 4-chloro-N-[6-(2,4-difluoro-benzoyl)-5,6,7,8-tetrahydro-pyrido[4,3-d]pyrimidin-2-yl]-benzamide], the BTX inhibition falls from 75 to 55.

First: CCCC(=O)Nc1ncc2c(n1)CCC(NS(=O)(=O)c1ccc(C(C)(C)CC)cc1)C2 (stereo not drawn) [Example 167, N-{6-[4-(1,1-dimethyl-propyl)-benzenesulfonylamino]-5,6,7,8-tetrahydro-quinazolin-2-yl}-butyramide]
Second: CCCC(=O)Nc1ncc2c(n1)CCC(NC(=O)c1ccc(Cc3ccccc3)o1)C2 (stereo not drawn) [Example 133, 5-benzyl-furan-2-carboxylic acid (2-butyrylamino-5,6,7,8-tetrahydro-quinazolin-6-yl)-amide]
The BTX inhibition of the first is higher: 51 for the first, 39 for the second.

First: O=C(Nc1ncc2c(n1)CCC(NS(=O)(=O)c1ccc3c(c1)CN(C(=O)C(F)(F)F)CC3)C2)c1cccs1 (stereo not drawn) [Example 147, thiophene-2-carboxylic acid {6-[2-(2,2,2-trifluoro-acetyl)-1,2,3,4-tetrahydro-isoquinoline-7-sulfonylamino]-5,6,7,8-tetrahydro-quinazolin-2-yl}-amide]
Second: O=C(Nc1ncc2c(n1)CCN(C(=O)C1CCc3ccccc3C1)C2)c1cccc(F)c1 (stereo not drawn) [Example 141, 3-fluoro-N-[6-(1,2,3,4-tetrahydro-naphthalene-2-carbonyl)-5,6,7,8-tetrahydro-pyrido[4,3-d]pyrimidin-2-yl]-benzamide]
The BTX inhibition of the first is lower: 48 for the first, 63 for the second.

First: COc1cccc(C(=O)Nc2ncc3c(n2)CCN(S(=O)(=O)c2cc(Br)ccc2OC)C3)c1 [Example 129, N-[6-(5-bromo-2-methoxy-benzenesulfonyl)-5,6,7,8-tetrahydro-pyrido[4,3-d]pyrimidin-2-yl]-3-methoxy-benzamide]
Second: Cc1ccc([N+](=O)[O-])cc1S(=O)(=O)N1CCc2nc(NC(=O)c3ccccc3F)ncc2C1 [Example 150, 2-fluoro-N-[6-(2-methyl-5-nitro-benzenesulfonyl)-5,6,7,8-tetrahydro-pyrido[4,3-d]pyrimidin-2-yl]-benzamide]
The BTX inhibition of the first is higher: 76 for the first, 49 for the second.

Going from O=C(Nc1ncc2c(n1)CCN(C(=O)Cc1ccc(C(F)(F)F)cc1)C2)c1ccccc1 [Example 155, N-{6-[2-(4-trifluoromethyl-phenyl)-acetyl]-5,6,7,8-tetrahydro-pyrido[4,3-d]pyrimidin-2-yl}-benzamide] to O=C(Nc1ncc2c(n1)CCN(C(=O)c1ccc(Cl)c(Cl)c1)C2)c1ccccc1F [Example 113, N-[6-(3,4-dichloro-benzoyl)-5,6,7,8-tetrahydro-pyrido[4,3-d]pyrimidin-2-yl]-2-fluoro-benzamide], the BTX inhibition falls from 62 to 38.

Going from COc1ccccc1C(=O)Nc1ncc2c(n1)CCN(C(=O)c1cc(-c3ccc(Cl)cc3)oc1C)C2 [Example 78, N-{6-[5-(4-chloro-phenyl)-2-methyl-furan-3-carbonyl]-5,6,7,8-tetrahydro-pyrido[4,3-d]pyrimidin-2-yl}-2-methoxy-benzamide] to Cc1oc(-c2ccccc2)cc1C(=O)N1CCc2nc(NC(=O)c3ccccc3F)ncc2C1 [Example 137, 2-fluoro-N-[6-(2-methyl-5-phenyl-furan-3-carbonyl)-5,6,7,8-tetrahydro-pyrido[4,3-d]pyrimidin-2-yl]-benzamide], the BTX inhibition rises from 31 to 43.

First: Cc1ccc(C)c(CC(=O)NC2CCc3nc(NC(=O)c4ccc(F)cc4)ncc3C2)c1 (stereo not drawn) [Example 163, N-{6-[2-(2,5-dimethyl-phenyl)-acetylamino]-5,6,7,8-tetrahydro-quinazolin-2-yl}-4-fluoro-benzamide]
Second: O=C(Nc1ncc2c(n1)CCN(C(=O)c1ccc(OC(F)(F)F)cc1)C2)c1cc(Cl)cc(Cl)c1 [Example 192, 3,5-dichloro-N-[6-(4-trifluoromethoxy-benzoyl)-5,6,7,8-tetrahydro-pyrido[4,3-d]pyrimidin-2-yl]-benzamide]
The BTX inhibition of the first is lower: 28 for the first, 87 for the second.
